Reference: patent publication US12151019B2, “Compositions for blood storage and transfusions” (Albert Einstein College of Medicine, priority 2020, dated 2024)

Experiment: Loading potential / solubility in PEG400/myristic acid vehicles and in water
Type: physicochemical
Conditions: for dissolved material in aqueous solution: aqueous sample compared with Sample 3
Experimental: Vehicles for loading the active ingredient were prepared as illustrated in samples 1-4. Myristic acid (solid flakes) was dissolved in PEG400 upon warming the mixture in a warm water bath. Shaking accelerated the formation of the resulting clear solution. The following four concentrations of myristic acid (MA) in PEG400 were prepared and evaluated. Samples 1, 2, 3 and 4 were all clear solutions when the samples were allowed to attain ambient temperatures. • a. 30 ml of PEG400+1.5 grams of MA (Sample 1) • b. 30 ml of PEG400+3 grams of MA (Sample 2) • c. 30 ml of PEG400+0.75 grams of MA (Sample 3) • d. 30 ml of PEG400+2.25 grams of MA (Sample 4)
The samples as vehicles were loaded with NO enhancing agent. […] Samples 1 and 2 were initially liquid but formed a solid uniform gel over a period of several hours. Sample 3 was prepared by dissolving 0.75 grams of MA in 30 ml's of PEG400 and heating in a water bath (˜60-80 C) for ˜15 minutes. Sample 4 was prepared by dissolving 2.25 grams of MA in 30 mls of PEG400 and heating in a water bath (˜60-80 C) for ˜15 minutes. Both sample 3 and sample 4 were uniform solutions when the heating cycle was finished. Upon cooling sample 3 remained liquid whereas sample 4 formed a uniform gel.
The addition of water to the PEG400/MA based formulation can create a nonuniform emulsion that poses difficulties for topical use.
The Sample 3 solvent system was also tested as a vehicle for loading potential with the following low solubility reagents using the above method: quercetin, berberine, N-acetyl cysteine amide (NACA) and N-acetyl cysteine ethyl ester (NAC-ethylester).

dissolved material in aqueous solution	solubility of quercetin in sample 3 or sample 4 (either sample 3 or sample 4 vehicle)	Structure (SMILES)	dissolving of added curcumin in PEG400/myristic acid (1.5 grams of Curcumin 95 added to Samples 1, 2, 3 (30 ml PEG400 + MA), warmed, shaken, cooled to ambient)
		COc1cc(/C=C/C(=O)CC(=O)/C=C/c2ccc(O)c(OC)c2)ccc1O [Curcumin 95]	dissolving of almost all of the added curcumin
minimal dissolved material		COc1ccc2cc3[n+](cc2c1OC)CCc1cc2c(cc1-3)OCO2 [berberine]	
minimal dissolved material	200-300 mg quercetin in 30 ml	O=c1c(O)c(-c2ccc(O)c(O)c2)oc2cc(O)cc(O)c12 [quercetin]	
